Measurements published in paper PMC9377102, “Toxicity and toxicokinetics of the ethanol extract of Zuojin formula” (BMC Complementary Medicine and Therapies, 2022).
Like-named read-outs stand apart in the source and are kept apart here.

Columns and labels:
[1] = Toxicokinetics test in the satellite groups (UPLC-MS/MS of rat plasma); format: in vivo; details: for AUC(0-t) / Cmax / Tmax / half-life: SD, rat, plasma, po; for half-life: read-out: T1/2 mean (converted)
Procedure: SD rats (5 ~ 6 weeks, 3/group/sex) were randomly allocated to three treatment groups and given the same dosage as those in the repeated toxicity experiment for 28 days. […] Carbamazepine was chosen as the internal standard (IS). The blood samples were centrifuged to obtain plasma. Then, 300 μL of acetonitrile containing 40 ng of IS was added to 100 μL of plasma. After vortexing for 1 min, the mixture was centrifuged at 17,000 rpm for 15 min at 4 °C. The supernatant of each sample was injected into a UPLC–MS/MS system for determination. The injection volume was 1 μL. UPLC–MS analysis was performed on a Thermo Fisher Scientific Ultimate 3000 UPLC system (San Jose, USA) and an API 4000 QTRAP mass spectrometer (Foster City, USA) equipped with an ESI source. The mobile phase consisted of 2 solvents: (A) water containing 0.1% formic acid and (B) 100% acetonitrile. For MS, multiple reaction monitoring (MRM) in positive ion mode was used as the scanning mode for the main components and IS in the plasma samples. The dwell time (DT), collision energy (CE), quadrupole 1 pre-rod bias (Q1) and quadrupole 3 pre-rod bias (Q3) are listed in Table 3.

[2] = tested on: CYP3A4, CYP1A2 and CYP2D6; details: cited from earlier work
[3] = female, female rats, Day 1, highest dose (berberine 72.08, epiberberine 7.42, coptisine 7.42, palmatine 18.26, jatrorrhizine 2.80, columbamine 5.93 mg/kg)
[4] = female, female rats, Day 1, middle dose (berberine 24.03, epiberberine 2.47, coptisine 2.47, palmatine 6.09, jatrorrhizine 0.93, columbamine 1.98 mg/kg)
[5] = female, female rats, Day 28, highest dose (berberine 72.08, epiberberine 7.42, coptisine 7.42, palmatine 18.26, jatrorrhizine 2.80, columbamine 5.93 mg/kg)
[6] = female, female rats, Day 28, lowest dose (berberine 8.01, epiberberine 0.82, coptisine 1.38, palmatine 2.03, jatrorrhizine 0.31, columbamine 0.66 mg/kg)
[7] = female, female rats, Day 28, middle dose (berberine 24.03, epiberberine 2.47, coptisine 2.47, palmatine 6.09, jatrorrhizine 0.93, columbamine 1.98 mg/kg)
[8] = male, male rats, Day 1, lowest dose (berberine 8.01, epiberberine 0.82, coptisine 1.38, palmatine 2.03, jatrorrhizine 0.31, columbamine 0.66 mg/kg)
[9] = male, male rats, Day 1, middle dose (berberine 24.03, epiberberine 2.47, coptisine 2.47, palmatine 6.09, jatrorrhizine 0.93, columbamine 1.98 mg/kg)
[10] = male, male rats, Day 28, highest dose (berberine 72.08, epiberberine 7.42, coptisine 7.42, palmatine 18.26, jatrorrhizine 2.80, columbamine 5.93 mg/kg)
[11] = male, male rats, Day 28, lowest dose (berberine 8.01, epiberberine 0.82, coptisine 1.38, palmatine 2.03, jatrorrhizine 0.31, columbamine 0.66 mg/kg)
[12] = male, male rats, Day 28, middle dose (berberine 24.03, epiberberine 2.47, coptisine 2.47, palmatine 6.09, jatrorrhizine 0.93, columbamine 1.98 mg/kg)

COc1cc2c(cc1O)CC[n+]1cc3c(OC)c(OC)ccc3cc1-2 [jatrorrhizine]
AUC(0-t) ([1]; female, 0.4 g/kg, female rats, Day 1, low dose TAZF 0.4 g/kg by gavage, read-out: AUC0-t): 25.6 ± 30 ng·h/mL | Cmax ([1]; female, 0.4 g/kg, female rats, Day 1, low dose TAZF 0.4 g/kg by gavage, read-out: Cmax): 11 ± 7.79 ng/mL | AUC(0-t) ([1]; female, 0.4 g/kg, female rats, Day 28, low dose TAZF 0.4 g/kg by gavage, read-out: AUC0-t): 23.9 ± 27.7 ng·h/mL | Cmax ([1]; female, 0.4 g/kg, female rats, Day 28, low dose TAZF 0.4 g/kg by gavage, read-out: Cmax): 11.2 ± 15 ng/mL | AUC(0-t) ([1]; female, 3.7 g/kg, female rats, Day 1, high dose TAZF 3.7 g/kg by gavage, read-out: AUC0-t): 22.1 ± 4.83 ng·h/mL | Cmax ([1]; female, 3.7 g/kg, female rats, Day 1, high dose TAZF 3.7 g/kg by gavage, read-out: Cmax): 14.8 ± 10.7 ng/mL | AUC(0-t) ([1]; female, 3.7 g/kg, female rats, Day 28, high dose TAZF 3.7 g/kg by gavage, read-out: AUC0-t): 11.4 ± 1.79 ng·h/mL | Cmax ([1]; female, 3.7 g/kg, female rats, Day 28, high dose TAZF 3.7 g/kg by gavage, read-out: Cmax): 2.08 ± 0.41 ng/mL | Tmax [1, 3]: 0.5 h | AUC(0-t) ([1]; female, female rats, Day 1, highest dose (berberine 72.08, epiberberine 7.42, coptisine 7.42, palmatine 18.26, jatrorrhizine 2.80, columbamine 5.93 mg/kg), read-out: AUC0-t mean): 22.1 ng·h/mL | Cmax ([1]; female, female rats, Day 1, highest dose (berberine 72.08, epiberberine 7.42, coptisine 7.42, palmatine 18.26, jatrorrhizine 2.80, columbamine 5.93 mg/kg), read-out: Cmax mean): 14.8 ng/mL | half-life [1, 3]: 3.96 h | AUC(0-t) ([1]; female, female rats, Day 1, lowest dose (berberine 8.01, epiberberine 0.82, coptisine 1.38, palmatine 2.03, jatrorrhizine 0.31, columbamine 0.66 mg/kg), read-out: AUC0-t mean): 25.6 ng·h/mL | Cmax ([1]; female, female rats, Day 1, lowest dose (berberine 8.01, epiberberine 0.82, coptisine 1.38, palmatine 2.03, jatrorrhizine 0.31, columbamine 0.66 mg/kg), read-out: Cmax mean): 11 ng/mL | half-life ([1]; female, female rats, Day 1, lowest dose (berberine 8.01, epiberberine 0.82, coptisine 1.38, palmatine 2.03, jatrorrhizine 0.31, columbamine 0.66 mg/kg)): 2.64 h | Tmax [1, 4]: 0.83 h | AUC(0-t) ([1]; female, female rats, Day 1, middle dose (berberine 24.03, epiberberine 2.47, coptisine 2.47, palmatine 6.09, jatrorrhizine 0.93, columbamine 1.98 mg/kg), read-out: AUC0-t mean): 19.9 ng·h/mL | Cmax ([1]; female, female rats, Day 1, middle dose (berberine 24.03, epiberberine 2.47, coptisine 2.47, palmatine 6.09, jatrorrhizine 0.93, columbamine 1.98 mg/kg), read-out: Cmax mean): 14.6 ng/mL | half-life [1, 4]: 3.57 h | Tmax [1, 5]: 1.33 h | AUC(0-t) ([1]; female, female rats, Day 28, highest dose (berberine 72.08, epiberberine 7.42, coptisine 7.42, palmatine 18.26, jatrorrhizine 2.80, columbamine 5.93 mg/kg), read-out: AUC0-t mean): 11.4 ng·h/mL | Cmax ([1]; female, female rats, Day 28, highest dose (berberine 72.08, epiberberine 7.42, coptisine 7.42, palmatine 18.26, jatrorrhizine 2.80, columbamine 5.93 mg/kg), read-out: Cmax mean): 2.08 ng/mL | half-life [1, 5]: 4.98 h | Tmax [1, 6]: 4.17 h | AUC(0-t) ([1]; female, female rats, Day 28, lowest dose (berberine 8.01, epiberberine 0.82, coptisine 1.38, palmatine 2.03, jatrorrhizine 0.31, columbamine 0.66 mg/kg), read-out: AUC0-t mean): 23.9 ng·h/mL | Cmax ([1]; female, female rats, Day 28, lowest dose (berberine 8.01, epiberberine 0.82, coptisine 1.38, palmatine 2.03, jatrorrhizine 0.31, columbamine 0.66 mg/kg), read-out: Cmax mean): 11.2 ng/mL | half-life [1, 6]: 3.39 h | Tmax [1, 7]: 1 h | AUC(0-t) ([1]; female, female rats, Day 28, middle dose (berberine 24.03, epiberberine 2.47, coptisine 2.47, palmatine 6.09, jatrorrhizine 0.93, columbamine 1.98 mg/kg), read-out: AUC0-t mean): 3.87 ng·h/mL | Cmax ([1]; female, female rats, Day 28, middle dose (berberine 24.03, epiberberine 2.47, coptisine 2.47, palmatine 6.09, jatrorrhizine 0.93, columbamine 1.98 mg/kg), read-out: Cmax mean): 1.29 ng/mL | half-life [1, 7]: 5.33 h | T1/2 mean ([1]; male rats, Day 1, highest dose (berberine 72.08, epiberberine 7.42, coptisine 7.42, palmatine 18.26, jatrorrhizine 2.80, columbamine 5.93 mg/kg)): 9.68 h | AUC(0-t) ([1]; male, 0.4 g/kg, male rats, Day 1, low dose TAZF 0.4 g/kg by gavage, read-out: AUC0-t): 52 ± 20.4 ng·h/mL | Cmax ([1]; male, 0.4 g/kg, male rats, Day 1, low dose TAZF 0.4 g/kg by gavage, read-out: Cmax): 11.8 ± 10.8 ng/mL | AUC(0-t) ([1]; male, 0.4 g/kg, male rats, Day 28, low dose TAZF 0.4 g/kg by gavage, read-out: AUC0-t): 8.62 ± 3.21 ng·h/mL | Cmax ([1]; male, 0.4 g/kg, male rats, Day 28, low dose TAZF 0.4 g/kg by gavage, read-out: Cmax): 16.4 ± 16 ng/mL | AUC(0-t) ([1]; male, 3.7 g/kg, male rats, Day 1, high dose TAZF 3.7 g/kg by gavage, read-out: AUC0-t): 101 ± 35.3 ng·h/mL | Cmax ([1]; male, 3.7 g/kg, male rats, Day 1, high dose TAZF 3.7 g/kg by gavage, read-out: Cmax): 17.7 ± 11 ng/mL | AUC(0-t) ([1]; male, 3.7 g/kg, male rats, Day 28, high dose TAZF 3.7 g/kg by gavage, read-out: AUC0-t): 25.6 ± 6.74 ng·h/mL | Cmax ([1]; male, 3.7 g/kg, male rats, Day 28, high dose TAZF 3.7 g/kg by gavage, read-out: Cmax): 7.97 ± 7.64 ng/mL | Tmax ([1]; male, male rats, Day 1, highest dose (berberine 72.08, epiberberine 7.42, coptisine 7.42, palmatine 18.26, jatrorrhizine 2.80, columbamine 5.93 mg/kg)): 4 h | AUC(0-t) ([1]; male, male rats, Day 1, highest dose (berberine 72.08, epiberberine 7.42, coptisine 7.42, palmatine 18.26, jatrorrhizine 2.80, columbamine 5.93 mg/kg), read-out: AUC0-t mean): 101 ng·h/mL | Cmax ([1]; male, male rats, Day 1, highest dose (berberine 72.08, epiberberine 7.42, coptisine 7.42, palmatine 18.26, jatrorrhizine 2.80, columbamine 5.93 mg/kg), read-out: Cmax mean): 17.7 ng/mL | Tmax [1, 8]: 10 h | AUC(0-t) ([1]; male, male rats, Day 1, lowest dose (berberine 8.01, epiberberine 0.82, coptisine 1.38, palmatine 2.03, jatrorrhizine 0.31, columbamine 0.66 mg/kg), read-out: AUC0-t mean): 52 ng·h/mL | Cmax ([1]; male, male rats, Day 1, lowest dose (berberine 8.01, epiberberine 0.82, coptisine 1.38, palmatine 2.03, jatrorrhizine 0.31, columbamine 0.66 mg/kg), read-out: Cmax mean): 11.8 ng/mL | half-life [1, 8]: 52.9 h | Tmax [1, 9]: 1.83 h | AUC(0-t) ([1]; male, male rats, Day 1, middle dose (berberine 24.03, epiberberine 2.47, coptisine 2.47, palmatine 6.09, jatrorrhizine 0.93, columbamine 1.98 mg/kg), read-out: AUC0-t mean): 74.5 ng·h/mL | Cmax ([1]; male, male rats, Day 1, middle dose (berberine 24.03, epiberberine 2.47, coptisine 2.47, palmatine 6.09, jatrorrhizine 0.93, columbamine 1.98 mg/kg), read-out: Cmax mean): 15.4 ng/mL | half-life [1, 9]: 68 h | Tmax [1, 10]: 1.17 h | AUC(0-t) ([1]; male, male rats, Day 28, highest dose (berberine 72.08, epiberberine 7.42, coptisine 7.42, palmatine 18.26, jatrorrhizine 2.80, columbamine 5.93 mg/kg), read-out: AUC0-t mean): 25.6 ng·h/mL | Cmax ([1]; male, male rats, Day 28, highest dose (berberine 72.08, epiberberine 7.42, coptisine 7.42, palmatine 18.26, jatrorrhizine 2.80, columbamine 5.93 mg/kg), read-out: Cmax mean): 7.97 ng/mL | half-life [1, 10]: 4.48 h | Tmax [1, 11]: 0.83 h | AUC(0-t) ([1]; male, male rats, Day 28, lowest dose (berberine 8.01, epiberberine 0.82, coptisine 1.38, palmatine 2.03, jatrorrhizine 0.31, columbamine 0.66 mg/kg), read-out: AUC0-t mean): 8.62 ng·h/mL | Cmax ([1]; male, male rats, Day 28, lowest dose (berberine 8.01, epiberberine 0.82, coptisine 1.38, palmatine 2.03, jatrorrhizine 0.31, columbamine 0.66 mg/kg), read-out: Cmax mean): 16.4 ng/mL | half-life [1, 11]: 11.1 h | Tmax [1, 12]: 12 h | AUC(0-t) ([1]; male, male rats, Day 28, middle dose (berberine 24.03, epiberberine 2.47, coptisine 2.47, palmatine 6.09, jatrorrhizine 0.93, columbamine 1.98 mg/kg), read-out: AUC0-t mean): 33.3 ng·h/mL | Cmax ([1]; male, male rats, Day 28, middle dose (berberine 24.03, epiberberine 2.47, coptisine 2.47, palmatine 6.09, jatrorrhizine 0.93, columbamine 1.98 mg/kg), read-out: Cmax mean): 7.78 ng/mL | half-life [1, 12]: 2.72 h | Systemic exposure after 28 days of administration vs single administration ([1]; rats, oral TAZF): much lower | Metabolism by CYP3A4, CYP1A2 and CYP2D6 [2]: metabolized
